# Reference: US12466804B2 (BRISTOL-MYERS SQUIBB COMPANY, priority 2019, dated 2025)
# How the values were obtained:
# [1] = system: IPF patients; conditions: 26-week clinical trial in IPF patients (Palmer et al.); cited from earlier work
# [2] = target: T1, human LPA1 (Homo sapiens, UniProt Q92633); assay: LPA1 functional antagonist assay (LPA-induced calcium flux); format: cell-based; conditions: CHO cells overexpressing human LPA1; calcium flux induced by 10 nM LPA; read-out: hLPA1 IC50
# T1 construct: expressed in transfected cells; host or cells: Chinese hamster ovary (CHO) cells
# Procedure: The effectiveness of compounds of the present invention as LPA1 inhibitors can be determined in an LPA1 functional antagonist assay as follows:
# The cells were then equilibrated to room temperature for 30 minutes before the assay. […] IC50 values were determined by fitting data to a 4-parameter logistic equation (GraphPad Prism, San Diego CA).
# [3] = system: nerve-injured mice; conditions: pretreatment, nerve-injured mice (Inoue et al.); cited from earlier work
# [4] = system: human foetal lung fibroblasts; conditions: Tager et al.; cited from earlier work
# [5] = system: UUO mice; conditions: cited from earlier work
# [6] = system: mouse epithelial renal cell line, MCT; conditions: MCT cells, co-treatment with LPA; cited from earlier work
# [7] = system: pancreatic cancer cell lines; conditions: cited from earlier work
# T1 sequence (Q92633 whole entry): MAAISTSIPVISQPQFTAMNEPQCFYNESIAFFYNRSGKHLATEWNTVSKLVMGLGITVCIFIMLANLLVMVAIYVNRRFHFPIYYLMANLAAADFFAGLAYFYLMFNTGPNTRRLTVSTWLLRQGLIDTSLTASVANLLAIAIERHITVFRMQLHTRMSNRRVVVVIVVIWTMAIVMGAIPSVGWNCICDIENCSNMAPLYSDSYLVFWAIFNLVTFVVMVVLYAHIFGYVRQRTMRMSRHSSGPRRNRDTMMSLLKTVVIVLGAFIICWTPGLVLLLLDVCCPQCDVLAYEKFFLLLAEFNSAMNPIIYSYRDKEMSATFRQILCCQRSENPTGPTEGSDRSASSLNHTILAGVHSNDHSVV
structure (smiles),measurement,setting,value
Cc1noc(-c2ccc(-c3ccc(C4(C(=O)O)CC4)cc3)cc2)c1NC(=O)O[C@H](C)c1ccccc1 [BMS-986020],rate of FVC (forced vital capacity) decline,[1],significantly reduce
"Cc1nc(-c2nnn(C)c2CNc2noc(CCC(C)C)n2)ccc1OCC12CC(C(=O)O)(C1)C2 [Example 55, 3-(((6-(5-(((5-isopentyl-1,2,4-oxadiazol-3-yl)amino)methyl)-1-methyl-1H-1,2,3-triazol-4-yl)-2-methylpyridin-3-yl)oxy)methyl)bicyclo[1.1.1]pentane-1-carboxylic acid]",IC50,[2],1.98 µM
"Cc1nc(-c2nnn(C)c2COC(=O)N(C)CC2CCC2)ccc1OCC12CCC(C(=O)O)(C1)C2 [Example 57, 4-(((6-(5-((((cyclobutylmethyl)(methyl)carbamoyl)oxy)methyl)-1-methyl-1H-1,2,3-triazol-4-yl)-2-methylpyridin-3-yl)oxy)methyl)bicyclo[2.1.1]hexane-1-carboxylic acid]",IC50,[2],0.082 µM
"Cc1nc(-c2onc(C)c2COC(=O)N(C)C2CCCC2)ccc1OCC12CCC(C(=O)O)(C1)C2 [Example 58, 4-(((6-(4-(((cyclopentyl(methyl)carbamoyl)oxy)methyl)-3-methylisoxazol-5-yl)-2-methylpyridin-3-yl)oxy)methyl)bicyclo[2.1.1]hexane-1-carboxylic acid]",IC50,[2],0.022 µM
C[C@@H](N)[C@H]1CC[C@H](C(=O)Nc2ccncc2)CC1 [Example Y-27632],allodynia and hyperalgesia,[3],completely abolished
Cc1noc(-c2ccc(CSCCC(=O)O)cc2)c1NC(=O)OC(C)c1ccccc1Cl (stereo not shown) [Ki16425],chemotaxis of human foetal lung fibroblasts induced by BAL from IPF patients,[4],blocked
same,development of renal fibrosis,[5],closely resembled the profile of LPA1 (−/−) mice
same,LPA-induced expression of the profibrotic cytokine CTGF,[6],almost completely suppressed
same,LPA-induced and ascites-induced invasion activity,[7]; highly peritoneal metastatic pancreatic cancer cell line,blocked
same,in vitro migration in response to LPA and peritoneal fluid (ascites) from pancreatic cancer patients,[7]; pancreatic cancer cell lines (Yamada et al.),effectively blocked
